Measured values: patent US10722575B2, “Use of 1,3-diphenylprop-2-en-1-one derivatives for treating liver disorders” (GENFIT, priority 2009, dated 2020)

Tests used:
[1] = tested on: hApoE2 KI/PPARalpha KO mice; assay: hApoE2 KI/PPARalpha KO mice on Western diet, 2 weeks, histological scores of liver steatosis and intralobular inflammation; type: in vivo; conditions: 30 mg/kg/day
Experimental: (§1) Animals were fed a Western diet (20% saturated fat and 0.2% cholesterol, Harlan Teklad TD88137) during 2 weeks in the first study, that involved the daily administration of Cpd 29 (at 30 mg/kg/day by oral gavage), and during 6 weeks in the second study, that involved the daily administration of Compound 1 of WO 2007147879 (Cpd1, at 30 mg/kg/day by oral gavage). Control animals were treated with vehicle only (Carboxymethlycellulose 1%+Tween-80 0.1%). Animals had access to food and water ad libitum.
At the end of the studies, the animals were weighed and sacrificed under anesthesia. Blood was collected from the retro-orbital sinus; plasma was obtained by centrifugation (4 000 rpm, at 4° C. for 15 min) and subsequently frozen and stored at −20° C. Tissues and livers were isolated and snap-frozen in liquid nitrogen and stored at −80° C. for subsequent analysis (gene expression and biochemistry) or fixed in 4% paraformaldehyde for histology.
Formalin-fixed liver tissue was processed, and 5-μm-thick paraffin sections were stained with Hematoxylin and Eosin. The histological analysis of stained liver sections was carried out in blind conditions to quantify liver steatosis and liver intralobular inflammation. Liver steatosis was scored from 0 to 3 as follows: 0 (very slightly affected), 1 (slightly affected), 2 (moderately affected), 3 (highly affected). Liver intralobular inflammation was also scored depending on the number of inflammatory foci counted by field of observation as follows: 0 (<1 focus/field), 1 (1 to 2 foci/field), 2 (2 to 4 foci/field) 3 (more than 4 foci/field).
Exemplary compounds of the General Formula (I) were tested in vivo in a high fat diet mice model. hApoE2 KI and hApoE2 KI/PPARalpha KO (“humanized” ApoE2 knock-in mice deficient for the mPPARalpha gene) were fed a Western diet and daily treated with the Cpd 29 at 30 mg/kg/day during 2 weeks. At the end of the protocol, liver steatosis and intra-lobular inflammation were evaluated in the control and treated mice by means of histological analysis and specific scores.

[2] = tested on: hApoE2 KI/PPARalpha KO mice; assay: hApoE2 KI/PPARalpha KO mice on Western diet, hepatic lipid analysis (liver triglycerides); type: in vivo; conditions: 30 mg/kg/day by gavage, 6 weeks, FIG. 4D
Experimental: The compounds of the General Formula (I) were tested in vivo in a high fat diet mice model. Dyslipidemic “humanized” hApoE2 KI deficient for PPARalpha were fed a Western diet and treated during 6 weeks. The compounds of interest, including the Compound 29 of WO 2004/005233 at 30 mg/kg/day and the Compound 1 of WO 2007/147879 at 30 mg/kg/day were orally administrated by gavage. At the end of the protocol, animals were sacrificed, livers were harvested and the hepatic expression of relevant genes implicated in the liver inflammation and the fibrosis processes were evaluated by quantitative RT-PCR. In parallel, liver triglycerides contents were evaluated (Panels A-D). Statistical analysis was performed as indicated for FIG. 1.
as §1, with “Control animals were treated with vehicle only (Carboxymethlycellulose 1%+Tween-80 0.1%). Animals had access to food and water ad libitum.” left out
In another study, the liver-specific anti-inflammatory and anti-fibrotic properties effects of Cpd 29 and Compound 1 of WO 2007/147879 (Cpd 1) were evaluated in the hApoE2 KI/PPARalpha KO mice that were fed a Western diet and daily treated with the selected compounds during 6 weeks.

[3] = hApoE2 KI/PPARalpha KO mice, Western diet

1-[4-methylthiophenyl]-3-[3,5-dimethyl-4-carboxydimethylmethyloxyphenyl]prop-2-en-1-one [Cpd 29]
development of liver inflammation induced by the diet [1, 3]: inhibits | development of liver steatosis induced by the diet [1, 3]: inhibits | Liver Inflammation (score) 0 ([1]; share of group with score 0 (<1 focus/field), hApoE2 KI/PPARalpha KO): 67% | Liver Steatosis (score) 0 ([1]; share of group with score 0 (very slightly affected), hApoE2 KI/PPARalpha KO): 0% | Liver Inflammation (score) 1 ([1]; share of group with score 1 (1 to 2 foci/field), hApoE2 KI/PPARalpha KO): 17% | Liver Steatosis (score) 1 ([1]; share of group with score 1 (slightly affected), hApoE2 KI/PPARalpha KO): 33% | Liver Inflammation (score) 2 ([1]; share of group with score 2 (2 to 4 foci/field), hApoE2 KI/PPARalpha KO): 17% | Liver Steatosis (score) 2 ([1]; share of group with score 2 (moderately affected), hApoE2 KI/PPARalpha KO): 50% | Liver Steatosis (score) 3 ([1]; share of group with score 3 (highly affected), hApoE2 KI/PPARalpha KO): 17% | Liver Inflammation (score) 3 ([1]; share of group with score 3 (more than 4 foci/field), hApoE2 KI/PPARalpha KO): 0% | triglycerides accumulation in the liver [2]: prevented
